US12459899B2, “Isoquinolinone derivatives, method for preparing the same, and pharmaceutical composition for preventing or treating poly(ADP-ribose) polymerase-1-related diseases, comprising the same as active ingredient” (DIGMBIO. INC., priority 2019, dated 2025)

Experiments:
[1] = tested on: ARPE-19 cells; test: Retinal pigment epithelial cell line protection, H2O2-induced apoptosis, MTS activity assay; format: cell-based, human; conditions: 0.5 mM H2O2, 6 hours
Experimental: In order to evaluate the protective effect of the compounds according to the present invention on the retinal pigment epithelial cell line under the condition of inducing dry macular degeneration-like apoptosis, the following experiment was performed.
Specifically, ARPE-19 cells, which is a human retinal pigment epithelial cell line, were cultured in DMEM:F12 (Dulbecco's Modified Eagle's Medium: Ham's nutrient mixture F-12) containing 10% fetal bovine serum (FBS) and 1% penicillin/streptomycin. The cells were aliquoted in a well plate so that the number of cells per well was 1×10^4, and incubated in a 37° C. CO2 incubator for 12 hours. DMSO (0.1%) (control group) alone or various concentrations of the compounds of Examples 1 to 276 according to the present invention (experimental groups) were treated in a medium mixed with 0.5 mM H2O2 (control group), and then, the cells were further cultured in a 37° C. CO2 incubator for 6 hours to induce apoptosis.
The degree of apoptosis was measured by an MTS (3-(4,5-dimethylthiazol-2-yl)-5-(3-carboxymethoxyphenyl)-2-(4-sulfophenyl)-2H-tetrazolium) activity assay method manufactured by Promega, the cell MTS activity level in the normal medium condition was set to 100%, and the relative degree of cell protection was converted and determined based on the MTS activity level of the control group in the 0.5 mM H2O2 treatment condition.
The MTS activity assay evaluation method is a method of measuring the activity of NADH dehydrogenase in mitochondria in cells, and MTS is reduced by NADH dehydrogenase to form colored formazan. Through this method, live cells can be quantified, and cell proliferation and apoptosis can be quantified. After the above-mentioned damage stimulus was treated to the retinal pigment epithelial cell line, 15 μL of MTS activity assay kit manufactured by Promega was added to each well, and then reacted in a 37° C. CO2 incubator for 2 hours. The reacted wells were quantified by measuring the absorbance at 450 nm using a microplate reader Victor 3 manufactured by PerkinElmer, Inc., and the results are shown in Table 4 below.

[2] = target: PARP-1 (poly[ADP-ribose] polymerase 1) enzyme (Homo sapiens (Human), UniProt P09874); test: PARP-1 (poly[ADP-ribose] polymerase 1) enzyme inhibitory ability, Trevigen assay kit; format: biochemical; conditions: for inhibition at 0.001 µM: 1 nM compound, read-out: PAR P-1 Inhibitory ability at 1 nM; for IC50: PARP-1 enzyme activity
Procedure, shortened: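 Human PARP-1 activity was measured with a Trevigen assay kit in histone-coated 96-well plates rehydrated with 50 μL of 1×PARP buffer for 30 minutes. Enzyme (0.5 unit/well) and compound were preincubated 10 minutes at room temperature, then 25 μL of 1×PARP cocktail with biotinylated NAD and activated DNA was added for 1 hour.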

[3] = tested on: rat model for dry macular degeneration (sodium iodate); test: Retinal layer protection of rats in sodium iodate model for dry macular degeneration; format: in vivo; conditions: 8-week-old rats, SI 50 mg/kg i.p., compound single intraperitoneal injection 15 mg/kg, H&E
Experimental: In order to evaluate the inhibitory effect (protective effect) of the compounds according to the present invention on reducing the thickness of the retinal layer of rats in dry macular degeneration-like cells, the following experiment was performed.
Specifically, 8-week-old rats were intraperitoneally injected with 50 mg/kg of sodium iodate (SI) to degenerate the retinal pigment epithelium and the photoreceptor cell layer to create a simulated animal model for dry macular degeneration. Retinal degeneration was observed 1 week after SI administration.
After a single intraperitoneal injection of Example 46 or Example 1 at a concentration of 15 mg/kg to the rat model for dry macular degeneration, the inhibitory effect (protective effect) on reducing the thickness of the retinal layer of the rats was evaluated.
In order to quantify the reduction of retinal thickness, the eyes extracted from the rats were fixed in a 4% glutaraldehyde solution for 3 hours and then embedded with paraffin. After preparing 5 μm-thick tissue fragments, the fragments were stained with a hematoxylin-eosin (H&E) solution and photographed with an optical microscope to measure the thickness of the retinal outer nuclear layer (ONL) of the retina. As a result, the thickness (μm) of the retinal ONL of the control group was calculated and expressed as 100% (n=3 times). […]

Chain of PARP-1 (poly[ADP-ribose] polymerase 1) enzyme (P09874 whole entry): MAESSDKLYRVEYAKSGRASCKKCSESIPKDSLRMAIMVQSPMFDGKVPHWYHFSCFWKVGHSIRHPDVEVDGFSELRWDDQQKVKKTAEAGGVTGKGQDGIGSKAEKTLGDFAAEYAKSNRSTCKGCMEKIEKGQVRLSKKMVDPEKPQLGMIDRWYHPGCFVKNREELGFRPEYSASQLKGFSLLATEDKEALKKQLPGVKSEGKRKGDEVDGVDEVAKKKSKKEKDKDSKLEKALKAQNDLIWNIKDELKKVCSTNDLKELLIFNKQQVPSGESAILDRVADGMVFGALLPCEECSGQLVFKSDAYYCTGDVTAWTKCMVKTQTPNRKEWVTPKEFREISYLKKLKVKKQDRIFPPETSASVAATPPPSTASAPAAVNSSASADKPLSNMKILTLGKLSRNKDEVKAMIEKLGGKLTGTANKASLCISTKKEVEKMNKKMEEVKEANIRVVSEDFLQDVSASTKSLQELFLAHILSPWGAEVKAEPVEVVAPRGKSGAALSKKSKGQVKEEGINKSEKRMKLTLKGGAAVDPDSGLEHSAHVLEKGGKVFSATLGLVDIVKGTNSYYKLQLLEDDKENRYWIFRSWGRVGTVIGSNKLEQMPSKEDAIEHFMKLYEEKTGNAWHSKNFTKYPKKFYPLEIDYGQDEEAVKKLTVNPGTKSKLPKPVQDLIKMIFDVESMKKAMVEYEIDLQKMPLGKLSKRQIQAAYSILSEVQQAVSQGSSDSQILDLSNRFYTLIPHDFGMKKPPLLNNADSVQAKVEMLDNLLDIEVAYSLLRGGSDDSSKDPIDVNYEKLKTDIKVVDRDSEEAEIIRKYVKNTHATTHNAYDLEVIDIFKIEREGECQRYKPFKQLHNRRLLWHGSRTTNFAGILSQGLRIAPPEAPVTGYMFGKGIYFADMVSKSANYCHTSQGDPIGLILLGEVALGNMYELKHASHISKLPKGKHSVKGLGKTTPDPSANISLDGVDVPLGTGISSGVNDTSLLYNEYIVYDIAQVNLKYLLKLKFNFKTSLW

Row | SMILES | EC50 [1] [nM] | EC50 ([1]; Homo sapiens, ARPE-19, 6 h) [nM] | inhibition at 0.001 µM [2] [%] | protection of retinal outer nuclear layer (ONL) thickness [3] | IC50 [2] [nM]
1 | O=c1[nH]c(CCCN2C3CCC2CN(c2ccc(Cl)cc2)C3)cc2ncccc12 [Example 228, 7-(3-(3-(4-chlorophenyl)-3,8-diazabicyclo[3.2.1]octan-8-yl)propyl)-1,6-naphthyridin-5(6H)-one] | 144 | < 150 | 50 to 80 |  | 
2 | Cc1cc(F)cc2c(=O)[nH]c(CCC(=O)N3CC=C(c4ccc(C#N)cn4)CC3)cc12 [Example 165, 1′-(3-(7-fluoro-5-methyl-1-oxo-1,2-dihydroisoquinolin-3-yl)propanoyl)-1′,2′,3′,6′-tetrahydro-[2,4′-bipyridine]-5-carbonitrile] | 108 | < 150 | < 50 |  | 
3 | N#Cc1ccc(C2=CCN(CCCc3cc4cccc(F)c4c(=O)[nH]3)CC2)nc1 [Example 46, 1′-(3-(8-fluoro-1-oxo-1,2-dihydroisoquinolin-3-yl)propyl)-1′,2′,3′,6′-tetrahydro-[2,4′-bipyridine]-5-carbonitrile] |  |  | 50 to 80 | the retina was protected | 1.66
4 | N#Cc1ccc(N2CCN(CCCc3cc4cccc(F)c4c(=O)[nH]3)CC2)cc1 [Example 1, 4-(4-(3-(8-fluoro-1-oxo-1,2-dihydroisoquinolin-3-yl)propyl)piperazin-1-yl)benzonitrile] |  |  |  | the retina was protected | 2.3
5 | Cc1ccc(F)c2c(=O)[nH]c(CCC(=O)N3CC=C(c4ccc(C#N)cn4)CC3)cc12 [Example 140, 1′-(3-(8-fluoro-5-methyl-1-oxo-1,2-dihydroisoquinolin-3-yl)propanoyl)-1′,2′,3′,6′-tetrahydro-[2,4′-bipyridine]-5-carbonitrile] |  |  | < 50 |  | 
6 | N#Cc1ccc(N2CCN(CCCc3cc4ncccc4c(=O)[nH]3)CC2)nc1 [Example 222, 6-(4-(3-(5-oxo-5,6-dihydro-1,6-naphthyridin-7-yl)propyl)piperazin-1-yl)nicotinonitrile] |  |  | < 50 |  | 
7 | N#Cc1ccc(C2=CCN(C(=O)CCc3cc4cccc(F)c4c(=O)[nH]3)CC2)nc1 [Example 88, 1′-(3-(8-fluoro-1-oxo-1,2-dihydroisoquinolin-3-yl)propanoyl)-1′,2′,3′,6′-tetrahydro-[2,4′-bipyridine]-5-carbonitrile] |  | 629 | < 50 |  | 
8 | Cc1cc(F)cc2c(=O)[nH]c(CCC(=O)N3CCN(C(=O)C4CC4)CC3)cc12 [Example 185, 3-(3-(4-(cyclopropanecarbonyl)piperazin-1-yl)-3-oxopropyl)-7-fluoro-5-methylisoquinolin-1(2H)-one] |  |  | < 50 |  | 
